Laboratory results taken from patent US9416141B2 (University of Washington through its Center for …, priority 2012, dated 2016).
Where a name gives a salt, the structure may show the parent alone.

Test system: hair cells
Assay: Hair cell toxicity assay in zebrafish (neomycin-induced hair cell death, DASPEI staining of neuromasts)
Assay type: in vivo
Conditions: Danio rerio; for Emax at 2.8 µM: maximum observed @ 2.8 μM test compound; for Emax at 2.8 µM / Emax at 25 µM / Emax at 8.3 µM: 200 micromolar neomycin, read-out: Max HC Protection (HCmax, % hair cell survival); for Emax at 25 µM: maximum observed @ 25 μM test compound; for EC50: zebrafish larvae 5-7 dpf, 1 h pre-treatment, then 200 micromolar neomycin + test compound 30 min, read-out: HC50 (concentration that would produce 50% hair cell survival); for Emax at 8.3 µM: maximum observed @ 8.3 μM test compound
Protocol: Zebrafish are bred and newly fertilized embryos are collected the week prior and raised at 28.5° C. in petri dishes containing embryo medium. Newly hatched free-swimming larvae are fed paramecium and dry fish food at 4 days post fertilization (dpf) with lights on. For treatment, fish 5-7 dpf are transferred to cell culture baskets and place within a well of a 6-well plate containing 7 milliliters of 1× embryo medium. Typically, tests are done with ten fish per basket but work well with up to 50 fish. All treatment and wash volumes are 7 milliliters. • 1. Fish are pre-treated with test compound for 1 hour. […] Treat with 200 micromolar neomycin (neomycin sulfate, Sigma, St. Louis, Mo., catalog #N1142)+test compound for 30 minutes. • 3. Rinse fish briefly 4 times in embryo medium and add 700 μl of 0.05% DASPEI (2-{4-(dimethylamino)styryl}-N-ethylpyridinium iodide, Molecular Probes, Eugene, Oreg.) and allowed to stain for 15 minutes. • 4. Rinse twice in embryo medium and add 350 μl MS222 (0.55 ug/ml final concentration, 3-aminobenzoic acid ethyl ester, methansulfoneate salt, Sigma, St. Louis, Mo.) to anesthetize. • 5. View with epifluorescence dissecting microscope equipped with a DAPSEI filter set (excitation […], Chroma Technologies, Brattleboro, Vt.). For assessment of initial dose response curves, fish are transferred to wide depression slide with wide-bore pipette. The DASPEI staining of ten neuromasts (SO1, SO2, IO1, IO2, IO3, IO4, M2, MI1, MI2 and O2) on one side of an animal are evaluated. Each neuromast is scored for presence of DASPEI staining (score=2), reduced DASPEI staining (score=1) or absence of DASPEI staining (score=0). Total scores for an animal are tabulated, to give a composite score that can range from 0 to 20. Average scores and standard deviations are calculated for animals in each treatment group. Scores are normalized to control group (vehicle only, no drug, no neomycin) and expressed as % hair cell survival. HCmax is the maximum protection (hair cell survival) observed. • 6. If at least 50% hair cells survive, the HC50 (concentration that would produce 50% hair cell survival) is calculated as a linear extrapolation from the nearest concentrations of protective drug that produce hair cell survival below and above 50%. If less than 50% hair cells survive, the HC50 is not determined. 1× embryo media (standard lab EM): • 1 mM MgSO4, • 0.15 mM KH2PO4, • 0.05 mM Na2HPO4, • 1 mM CaCl2, • 0.5 mM KCl • 15 mM NaCl • 0.7 mM NaHCO3

SMILES	Emax at 2.8 µM	Emax at 25 µM	EC50	Emax at 8.3 µM
CCN1CCc2c(sc(NC(=O)Nc3ccc(Cl)cc3)c2C(=O)NCCN(C)C)C1 [Example 99, 2-[3-(4-Chlorophenyl)ureido]-N-[2-(dimethylamino)ethyl]-6-ethyl-4,5,6,7-tetrahydrothieno[2,3-c]pyridine-3-carboxamide dihydrochloride]	18%	–	–	–
CC[N+]1(C)CCc2c(sc(NC(=O)Nc3ccc(C(=O)c4ccccc4)cc3)c2C(N)=O)C1 (centres unmarked) [Example 168, 2-[3-(4-Benzoylphenyl)ureido]-3-carbamoyl-6-ethyl-6-methyl-4,5,6,7-tetrahydrothieno[2,3-c]pyridin-6-ium iodide]	20%	–	–	–
COC(=O)C(C)(C)CN1CCc2c(sc(NC(=O)Nc3ccc(Cl)cc3)c2C(N)=O)C1 [Example 38, Methyl 3-{3-carbamoyl-2-[3-(4-chlorophenyl)ureido]-4,5-dihydrothieno[2,3-c]pyridin-6(7H)-yl}-2,2-dimethylpropanoate hydrochloride]	14%	–	–	–
CC[N+]1(C)C2CCC1c1sc(NC(=O)Nc3ccc(Cl)cc3)c(C(N)=O)c1C2 (racemic) [Example 187, (+/−)-3-Carbamoyl-2-[3-(4-chlorophenyl)ureido]-9-ethyl-9-methyl-5,6,7,8-tetrahydro-4H-thienocyclohepten-5,8-iminium chloride]	–	72%	1000 to 10000 nM	–
CC[N+]1(C)CCc2c(sc(NC(=O)N(C)c3ccc(Cl)cc3)c2C(N)=O)C1 (centres unmarked) [Example 185, 3-Carbamoyl-2-[3-(4-chlorophenyl)-3-methylureido]-6-ethyl-6-methyl-4,5,6,7-tetrahydrothieno[2,3-c]pyridin-6-ium chloride]	16%	–	–	–
NC(=O)c1c(NC(=O)Nc2ccc(Cl)cc2)sc2c1CCN(CCN1CCOCC1)C2 [Example 46, 2-[3-(4-Chlorophenyl)ureido]-6-(2-morpholinoethyl)-4,5,6,7-tetrahydrothieno[2,3-c]pyridine-3-carboxamide trifluoroacetate]	–	79%	> 10000 nM	–
CN1C2CCC1c1sc(NC(=O)Nc3ccc(Cl)cc3)c(C(N)=O)c1C2 (single isomer, unassigned; (-)) [Example 127, (−)-2-[3-(4-chlorophenyl)ureido]-9-methyl-5,6,7,8-tetrahydro-4H-5,8-epiminocyclohepta[b]thiophene-3-carboxamide hydrochloride]	–	–	1000 to 10000 nM	–
CCOC(=O)c1c(Nc2c(Nc3ccc(Cl)cc3)c(=O)c2=O)sc2c1CCN(CC)C2 [Example 110, Ethyl 2-({2-[(4-chlorophenyl)amino]-3,4-dioxocyclobut-1-en-1-yl}amino)-6-ethyl-4,5,6,7-tetrahydrothieno[2,3-c]pyridine-3-carboxylate hydrochloride]	–	69%	> 10000 nM	–
CN(C)C(=O)CC[N+]1(C)CCc2c(sc(NC(=O)Nc3ccc(Cl)cc3)c2C(N)=O)C1 (centres unmarked) [Example 194, 3-Carbamoyl-2-[3-(4-chlorophenyl)ureido]-6-[3-(dimethylamino)-3-oxopropyl]-6-methyl-4,5,6,7-tetrahydrothieno[2,3-c]pyridin-6-ium chloride]	36%	–	–	–
CC(C)C(C)[N+]1(C)CCc2c(sc(NC(=O)Nc3ccc(Cl)cc3)c2C(N)=O)C1 (racemic) [Example 204, (+/−)-3-Carbamoyl-2-[3-(4-chlorophenyl)ureido]-6-methyl-6-(3-methylbutan-2-yl)-4,5,6,7-tetrahydrothieno[2,3-c]pyridin-6-ium chloride]	–	–	–	77%
C[N+]1(CCCC(N)=O)CCc2c(sc(NC(=O)Nc3ccc(Cl)cc3)c2C(N)=O)C1 (centres unmarked) [Example 167, 6-(4-Amino-4-oxobutyl)-3-carbamoyl-2-[3-(4-chlorophenyl)ureido]-6-methyl-4,5,6,7-tetrahydrothieno[2,3-c]pyridin-6-ium trifluoroacetate]	21%	–	–	–
CC(C)OC(=O)CC[N+]1(C)CCc2c(sc(NC(=O)Nc3ccc(Cl)cc3)c2C(N)=O)C1 (centres unmarked) [Example 159, 3-Carbamoyl-2-[3-(4-chlorophenyl)ureido]-6-(3-isopropoxy-3-oxopropyl)-6-methyl-4,5,6,7-tetrahydrothieno[2,3-c]pyridin-6-ium iodide]	84%	–	< 1000 nM	–
CC[N+]1(CC(C)C)CCc2c(sc(NC(=O)Nc3ccc(Cl)cc3)c2C(N)=O)C1 (centres unmarked) [Example 200, 3-Carbamoyl-2-[3-(4-chlorophenyl)ureido]-6-ethyl-6-isobutyl-4,5,6,7-tetrahydrothieno[2,3-c]pyridin-6-ium chloride]	97%	–	< 1000 nM	–
C[N+]1(C2CCc3c(sc(NC(=O)Nc4ccc(Cl)cc4)c3C(N)=O)C2)CCC1 (centres unmarked) [Example 170, 1-{3-Carbamoyl-2-[3-(4-chlorophenyl)ureido]-4,5,6,7-tetrahydrobenzo[b]thiophen-6-yl}-1-methylazetidin-1-ium iodide]	–	85%	1000 to 10000 nM	–
CCN1CCc2c(sc(NC(=O)N(C)c3ccc(Cl)cc3)c2C(N)=O)C1 [Example 106, 2-[3-(4-chlorophenyl)-3-methylureido]-6-ethyl-4,5,6,7-tetrahydrothieno[2,3-c]pyridine-3-carboxamide hydrochloride]	–	23%	–	–
CC(C)(C)OC(=O)CCCC[N+]1(C)CCc2c(sc(NC(=O)Nc3ccc(Cl)cc3)c2C(N)=O)C1 (centres unmarked) [Example 155, 6-(5-tert-Butoxy-5-oxopentyl)-3-carbamoyl-2-[3-(4-chlorophenyl)ureido]-6-methyl-4,5,6,7-tetrahydrothieno[2,3-c]pyridin-6-ium iodide]	75%	–	< 1000 nM	–
Cc1c(CN2CCOCC2)sc(NC(=O)Nc2ccc(Cl)cc2)c1C(N)=O [Example 86, 2-[3-(4-Chlorophenyl)ureido]-4-methyl-5-(morpholinomethyl)thiophene-3-carboxamide hydrochloride]	–	–	1000 to 10000 nM	51%
CCN1CCc2c(sc(NC(=O)Nc3ccc(Cl)cc3)c2C(=O)N2CCOCC2)C1 [Example 95, 1-(4-chlorophenyl)-3-[6-ethyl-3-(morpholine-4-carbonyl)-4,5,6,7-tetrahydrothieno[2,3-c]pyridin-2-yl]urea hydrochloride]	–	78%	1000 to 10000 nM	–
NC(=O)c1c(NC(=O)Nc2ccc(Cl)cc2)sc2c1CCN(CCO)C2 [Example 60, 2-[3-(4-Chlorophenyl)ureido]-6-(2-hydroxyethyl)-4,5,6,7-tetrahydrothieno[2,3-c]pyridine-3-carboxamide hydrochloride]	–	71%	1000 to 10000 nM	–
CC(C)(C)C[N+]1(C)CCc2c(sc(NC(=O)Nc3ccc(Cl)c4ccccc34)c2C(N)=O)C1 (centres unmarked) [Example 183, 3-Carbamoyl-2-[3-(4-chloronaphthalen-1-yl)ureido]-6-methyl-6-neopentyl-4,5,6,7-tetrahydrothieno[2,3-c]pyridin-6-ium chloride]	–	–	1000 to 10000 nM	70%
CCN1CCCc2c(sc(NC(=O)Nc3ccc(Cl)cc3)c2C(N)=O)C1 [Example 114, 2-[3-(4-chlorophenyl)ureido)-7-ethyl-5,6,7,8-tetrahydro-4H-thieno[2,3-c]azepine-3-carboxamide hydrochloride]	–	97%	1000 to 10000 nM	–
NC(=O)c1c(NC(=O)Nc2ccc(I)cc2)sc2c1CCN(CCCOCc1ccccc1)C2 [Example 207]	–	66%	1000 to 10000 nM	–
CC1(C)Cc2c(sc(NC(=O)Nc3ccc(Cl)cc3)c2C(N)=O)C(C)(C)N1 [Example 90, 2-[3-(4-Chlorophenyl)ureido]-5,5,7,7-tetramethyl-4,5,6,7-tetrahydrothieno[2,3-c]pyridine-3-carboxamide hydrochloride]	–	–	1000 to 10000 nM	99%
CCOC(=O)CCCN1CCc2c(sc(NC(=O)Nc3ccc(Cl)cc3)c2C(N)=O)C1 [Example 21, Ethyl 4-{3-carbamoyl-2-[3-(4-chlorophenyl)ureido]-4,5-dihydrothieno[2,3-c]pyridin-6(7H)-yl}butanoate hydrochloride]	57%	–	1000 to 10000 nM	–
NC(=O)c1c(NC(=O)Nc2ccc(Cl)cc2)sc2c1CCN(CC13CC4CC(CC(C4)C1)C3)C2 [Example 49, 6-[(3r,5r,7r)-Adamantan-1-ylmethyl]-2-[3-(4-chlorophenyl)ureido]-4,5,6,7-tetrahydrothieno[2,3-c]pyridine-3-carboxamide hydrochloride]	64%	–	1000 to 10000 nM	–
